From US20240262819A1, “NOVEL COMPOUNDS HAVING INHIBITORY ACTIVITY AGAINST GLUCOSYLCERAMIDE SYNTHASE OR PHARMACEUTICALLY ACCEPTABLE SALT THEREOF, PROCESSES FOR PREPARING THE SAME, AND PHARMACEUTICAL COMPOSITIONS COMPRISING THE SAME” (YUHAN CORPORATION, priority 2021, published 2024)
pIC50: −log10 of the molar value. Like-named read-outs stand apart in the source and are kept apart here.

Key:
[1] = tested on: GM1 production in Jurkat cells; test: cells; type: cell-based
[2] = molecular target: glucosylceramide synthase (GCS) (Homo sapiens (Human), UniProt Q16739); test: Evaluation of inhibitory activities against GCS (A549 cell lysate, NBD C6-ceramide, HPLC); type: biochemical
Sequence of glucosylceramide synthase (GCS) (Q16739 whole entry): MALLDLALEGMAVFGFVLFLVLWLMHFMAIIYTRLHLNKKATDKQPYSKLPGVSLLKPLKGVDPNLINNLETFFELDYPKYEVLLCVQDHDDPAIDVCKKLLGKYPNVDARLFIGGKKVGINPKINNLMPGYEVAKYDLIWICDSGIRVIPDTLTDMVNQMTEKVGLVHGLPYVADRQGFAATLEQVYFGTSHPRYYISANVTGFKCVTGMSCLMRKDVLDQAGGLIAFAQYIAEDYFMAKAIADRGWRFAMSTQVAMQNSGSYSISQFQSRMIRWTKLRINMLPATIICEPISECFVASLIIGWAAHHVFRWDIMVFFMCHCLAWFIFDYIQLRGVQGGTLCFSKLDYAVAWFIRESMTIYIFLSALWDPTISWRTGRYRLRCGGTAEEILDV
Method: The inhibitory activities of the compounds of the present invention against GCS were evaluated, as follows, according to the method described in the known literature (Hayashi Y et al., A sensitive and reproducible assay to measure the activity of glucosylceramide synthase and lactosylceramide synthase using HPLC and fluorescent substrates, Analytical Biochemistry 345 (2005) 181-186). Ibiglustat, known as a GCS inhibitor, was used as a control.
After the cells attached to the culture dish were washed with phosphate buffered saline (PBS), the cells were scraped off with a cell scraper and then centrifuged (4000 rpm, 3 min, 4 °C) to collect the cells in a 50 ml tube. The cell pellets were suspended in a lysis buffer (50 mM HEPES, pH 7.3, containing 1× the protease/phosphatase inhibitor cocktail), lysed by sonication, and then the lysate was centrifuged (13000 rpm, 10 min, 4° C.). The obtained supernatant was used for the quantitative analysis of proteins. The amount of proteins was measured using the BCA protein assay kit, using bovine serum albumin as a standard.
Enzymatic reactions were initiated by sequentially adding the following reaction materials to a 96 deep-well plate. Thereafter, the enzymatic reactions were performed at 37° C. for 90 minutes.
The enzymatic reactions were stopped by adding 100 μl of chloroform/methanol (2:1, v/v). […] The lower layer (50 μl) was transferred to a new 96 deep-well plate and dried with a reduced concentrator.
Lipids were dissolved in 100 μl of isopropyl alcohol/n-hexane/H2O (55:44:1, v/v/v) and then transferred to a glass vial for HPLC (Agilent, 8004-HP-H/i3u). The sample (100 μl) was automatically loaded onto a normal-phase column (Intersil SIL 150A-5, 4.6×250 mm, GL Sciences, Japan) and then eluted at a flow rate of 2.0 ml/min with isopropyl alcohol/n-hexane/H2O (55:44:1, v/v/v). The fluorescence thereof was measured with a fluorescence detector (Agilent, 1260 FLD Spectra), using 470 nm and 530 nm as excitation and emission wavelengths, respectively.
Data analysis was performed by the following equations.
% Area (Sample)=Area (GlcCer)/[Area (Cer)+Area (GlcCer)]×100%
GCS activity=[Area (Sample)−Area (ibiglustat)]/[Area (DMSO)−Area (ibiglustat)]×100
The obtained % GCS activity data was analyzed with the software GraphPad Prism (Ver 5.01) to calculate the IC50 values.

[3] = Evaluation of blood-brain barrier (BBB) permeability through oral administration; type: in vivo, mice; conditions: mouse, in vivo, mice, oral, dose 30 mg/kg, 4 hr; for Kp at 4 h: read-out: Mean brain-plasma drug ratio at 4 hr
Method: The blood-brain barrier (BBB) permeability was evaluated in mice, with respect to the compounds according to the present invention and the control (ibiglustat). Each compound of the present invention and the control were suspended in 0.5% methyl cellulose containing 0.2% Tween 80 and then orally administered to mice at a dose of 10 or 30 mg/10 ml/kg. After the whole blood was collected from the heart of each mouse at the time of 4 hours after the administration, it was placed in a lithium heparin tube and immediately centrifuged to obtain the plasma. After the exsanguination was carried out through abdominal vena cava incision, the forebrain was taken by dissection of the head. Both of the forebrain and the plasma were stored in a −80° C. freezer until the analysis of drug concentrations therein. For the analysis of drug concentrations therein, the forebrain was immersed in distilled water and then homogenized with a homogenizer to obtain a homogenate. Each plasma and homogenate was treated with acetonitrile to precipitate proteins, vortexed for 15 seconds, and then centrifuged (12700 rpm, 10 min, 4° C.). The obtained supernatant was diluted with an 80% aqueous solution of acetonitrile containing 0.1% formic acid and then analyzed with an LC-MS/MS instrument. LC-MS/MS analysis was carried out with a reversed-phase column, using distilled water containing 0.1% formic acid and acetonitrile as mobile phases. Each eluted material was detected through a mass spectrometer to calculate the drug concentrations thereof. The brain-plasma drug ratio (B/P ratio) was calculated from the drug concentrations in each tissue to evaluate the blood-brain barrier (BBB) permeability.

[4] = % GCS activity, A549 cell lysate, 37° C. for 90 minutes, read-out: IC50
[5] = read-out: Mean drug concentrations in brain tissue at 4 hr
[6] = read-out: Mean drug concentrations in plasma at 4 hr

| SMILES | pIC50 ([1]; Homo sapiens, Jurkat, 72 h) | pIC50 [2] | other results |
| --- | --- | --- | --- |
| CCc1ccc(-c2ccc3c(c2)CC(C)(C)[C@H]3NC(=O)O[C@@H]2CN3CCC2CC3)cc1F [Example 33, (S)-quinuclidin-3-yl((R)-5-(4-ethyl-3-fluorophenyl)-2,2-dimethyl-2,3-dihydro-1H-inden-1-yl)carbamate] | 8.14 | 9.01 | – |
| CC(C)Oc1c(F)cc(-c2ccc3c(c2)CC(C)(C)[C@H]3NC(=O)O[C@@H]2CN3CCC2CC3)cc1F [Example 37, (S)-quinuclidin-3-yl((R)-5-(3,5-difluoro-4-isopropoxyphenyl)-2,2-dimethyl-2,3-dihydro-1H-inden-1-yl)carbamate] | 8.66 | 8.71 | – |
| CC(C)Oc1c(Cl)cc(-c2ccc3c(c2)CC(C)(C)[C@H]3NC(=O)O[C@@H]2CN3CCC2CC3)cc1Cl [Example 40, (S)-quinuclidin-3-yl((R)-5-(3,5-dichloro-4-isopropoxyphenyl)-2,2-dimethyl-2,3-dihydro-1H-inden-1-yl)carbamate] | 8.80 | 8.49 | – |
| CC(C)(C)Oc1ccc(-c2ccc3c(c2)CC(C)(C)[C@H]3NC(=O)O[C@@H]2CN3CCC2CC3)cc1 [Example 41, (S)-quinuclidin-3-yl((R)-5-(4-(tert-butoxy)phenyl)-2,2-dimethyl-2,3-dihydro-1H-inden-1-yl)carbamate] | 7.87 | 9.05 | – |
| CC(C)(C)Oc1ccc(-c2ccc3c(c2)CC(C)(C)[C@H]3NC(=O)O[C@@H]2CN3CCC2CC3)c(Cl)c1 [Example 42, (S)-quinuclidin-3-yl((R)-5-(4-(tert-butoxy)-2-chlorophenyl)-2,2-dimethyl-2,3-dihydro-1H-inden-1-yl)carbamate] | 8.59 | 9.52 | – |
| CCOc1ccc(-c2ccc3c(c2)CC(C)(C)[C@H]3NC(=O)O[C@@H]2CN3CCC2CC3)cc1C [Example 46, (S)-quinuclidin-3-yl((R)-5-(4-ethoxy-3-methylphenyl)-2,2-dimethyl-2,3-dihydro-1H-inden-1-yl)carbamate] | 7.94 | 8.66 | – |
| CCCOc1ccc(-c2ccc3c(c2)CC(C)(C)[C@H]3NC(=O)O[C@@H]2CN3CCC2CC3)cc1C [Example 47, (S)-quinuclidin-3-yl((R)-2,2-dimethyl-5-(3-methyl-4-propoxyphenyl)-2,3-dihydro-1H-inden-1-yl) carbamate] | – | – | pIC50 ([1]; read-out: IC50): 8.11; pIC50 [2, 4]: 8.72 |
| Cc1cc(-c2ccc3c(c2)CC(C)(C)[C@H]3NC(=O)O[C@@H]2CN3CCC2CC3)ccc1OC(F)F [Example 48, (S)-quinuclidin-3-yl((R)-5-(4-(difluoromethoxy)-3-methylphenyl)-2,2-dimethyl-2,3-dihydro-1H-inden-1-yl)carbamate] | 7.86 | 8.89 | – |
| CC(C)Oc1cc(F)cc(-c2ccc3c(c2)CC(C)(C)[C@H]3NC(=O)O[C@@H]2CN3CCC2CC3)c1 [Example 49, (S)-quinuclidin-3-yl((R)-5-(3-fluoro-5-isopropoxyphenyl)-2,2-dimethyl-2,3-dihydro-1H-inden-1-yl)carbamate] | 8.03 | 9.24 | – |
| CC(C)COc1cc(F)cc(-c2ccc3c(c2)CC(C)(C)[C@H]3NC(=O)O[C@@H]2CN3CCC2CC3)c1 [Example 50, (S)-quinuclidin-3-yl((R)-5-(3-fluoro-5-isobutoxyphenyl)-2,2-dimethyl-2,3-dihydro-1H-inden-1-yl)carbamate] | 8.66 | 9.36 | – |
| CC1(C)Cc2cc(-c3cc(F)cc(OCC(F)(F)F)c3)ccc2[C@@H]1NC(=O)O[C@@H]1CN2CCC1CC2 [Example 51, (S)-quinuclidin-3-yl((R)-5-(3-fluoro-5-(2,2,2-trifluoroethoxy)phenyl)-2,2-dimethyl-2,3-dihydro-1H-inden-1-yl) carbamate] | – | – | pIC50 ([1]; read-out: IC50): 8.04; pIC50 [2, 4]: 9.19 |
| CC(C)Oc1cc(-c2ccc3c(c2)CC(C)(C)[C@H]3NC(=O)O[C@@H]2CN3CCC2CC3)ccc1Cl [Example 52, (S)-quinuclidin-3-yl((R)-5-(4-chloro-3-isopropoxyphenyl)-2,2-dimethyl-2,3-dihydro-1H-inden-1-yl)carbamate] | 7.44 | 8.08 | – |
| CC(C)COc1cc(Cl)cc(-c2ccc3c(c2)CC(C)(C)[C@H]3NC(=O)O[C@@H]2CN3CCC2CC3)c1 [Example 53, (S)-quinuclidin-3-yl((R)-5-(3-chloro-5-isobutoxyphenyl)-2,2-dimethyl-2,3-dihydro-1H-inden-1-yl)carbamate] | 8.39 | 9.17 | – |
| CC(C)Oc1cc(Cl)cc(-c2ccc3c(c2)CC(C)(C)[C@H]3NC(=O)O[C@@H]2CN3CCC2CC3)c1 [Example 54, (S)-quinuclidin-3-yl((R)-5-(3-chloro-5-isopropoxyphenyl)-2,2-dimethyl-2,3-dihydro-1H-inden-1-yl)carbamate] | 8.07 | 9.23 | – |
| CC1(C)Cc2cc(-c3ccc(OCC(F)(F)F)cc3Cl)ccc2[C@@H]1NC(=O)O[C@@H]1CN2CCC1CC2 [Example 55, (S)-quinuclidin-3-yl((R)-5-(2-chloro-4-(2,2,2-trifluoroethoxy)phenyl)-2,2-dimethyl-2,3-dihydro-1H-inden-1-yl)carbamate] | 8.66 | 9.20 | – |
| CCCOc1ccc(-c2cc3c(cc2F)[C@H](NC(=O)O[C@@H]2CN4CCC2CC4)C(C)(C)C3)cc1 [Example 69, (S)-quinuclidin-3-yl((R)-6-fluoro-2,2-dimethyl-5-(4-propoxyphenyl)-2,3-dihydro-1H-inden-1-yl)carbamate] | 8.96 | – | Kp at 4 h [3]: 9.84; concentration at 4 h [3, 5]: 4140 ng/g; concentration at 4 h [3, 6]: 433 ng/mL |
| CCCc1cccc(-c2cc3c(cc2F)[C@H](NC(=O)O[C@@H]2CN4CCC2CC4)C(C)(C)C3)c1 [Example 72, (S)-quinuclidin-3-yl((R)-6-fluoro-2,2-dimethyl-5-(3-propylphenyl)-2,3-dihydro-1H-inden-1-yl)carbamate] | 7.80 | 8.92 | – |
| COc1ccc(-c2cc3c(cc2F)[C@H](NC(=O)O[C@@H]2CN4CCC2CC4)C(C)(C)C3)cc1 [Example 82, (S)-quinuclidin-3-yl((R)-6-fluoro-5-(4-methoxyphenyl)-2,2-dimethyl-2,3-dihydro-1H-inden-1-yl)carbamate] | 7.69 | – | Kp at 4 h [3]: 6.32; concentration at 4 h [3, 5]: 5520 ng/g; concentration at 4 h [3, 6]: 896 ng/mL |
| COc1ccc(-c2cc3c(cc2F)[C@H](NC(=O)O[C@@H]2CN4CCC2CC4)C(C)(C)C3)cc1Cl [Example 85, (S)-quinuclidin-3-yl((R)-5-(3-chloro-4-methoxyphenyl)-6-fluoro-2,2-dimethyl-2,3-dihydro-1H-inden-1-yl)carbamate] | 7.18 | 9.09 | – |
| CCOc1ccc(-c2cc3c(cc2F)[C@H](NC(=O)O[C@@H]2CN4CCC2CC4)C(C)(C)C3)cc1F [Example 90, (S)-quinuclidin-3-yl((R)-5-(4-ethoxy-3-fluorophenyl)-6-fluoro-2,2-dimethyl-2,3-dihydro-1H-inden-1-yl)carbamate] | 7.58 | – | Kp at 4 h [3]: 7.42; concentration at 4 h [3, 5]: 6480 ng/g; concentration at 4 h [3, 6]: 874 ng/mL |
| COc1ccc(-c2cc3c(cc2F)[C@H](NC(=O)O[C@@H]2CN4CCC2CC4)C(C)(C)C3)c(Cl)c1 [Example 103, (S)-quinuclidin-3-yl((R)-5-(2-chloro-4-methoxyphenyl)-6-fluoro-2,2-dimethyl-2,3-dihydro-1H-inden-1-yl)carbamate] | 8.25 | – | Kp at 4 h [3]: 2.76; concentration at 4 h [3, 5]: 4680 ng/g; concentration at 4 h [3, 6]: 1700 ng/mL |
